Results published in patent EP1945226B1, “DRUG COMBINATION WITH ANALGESIC, ANTI-INFLAMMATORY AND DECONGESTIVE ACTIVITY” (Voicu, A. Victor, priority 2005, dated 2006).

Test system: edema induced by carrageenan
Assay: experimental inflammation model with carrageenan at the rats' posterior paws
Type: in vivo, Wistar rats
Settings: rat, administered independently
Method: The anti-inflammatory effect was found via the experimental inflammation model with carrageenan at the rats' posterior paws. For the experimental research, we used Wistar rats with 120±10g weight, in groups of 9 animals.
1% carrageenan saline solution was administered by subcutaneous injection (0.1 mL volume) In the posterior paw.
The anti-inflammatory combination was administered 1 hour before carrageenan. The posterior paws' dimensions were measured before and 3 hours after carrageenan solution injection. The contra lateral paw was used as reference. The following combination was used for the experiments:
This (combination, formulated as) suspension was administered orally (gavage), in dosage of 0.2 mL/100 g rat body weight.
Acetylsalicylic acid was administered independently, in doses of 250 mg/kg body weight, equivalent to the quantity used in the combination. Chlorpheniramine was also (independently) administered by oral route, as reference, in doses equivalent to 6 mg/kg body weight.

Structure (SMILES)	anti-inflammatory effect (oral route, 6 mg/kg body weight)	anti-inflammatory effect (reduces pow edema), mean value (250 mg/kg body weight)
CN(C)CCC(c1ccc(Cl)cc1)c1ccccn1 (centres unmarked) [chlorpheniramine]	no anti-inflammatory effect	
CC(=O)Oc1ccccc1C(=O)O [acetylsalicylic acid]		approximately 22%
